In ChEMBL document CHEMBL1149239, “Synthesis and pharmacological evaluation of piperidinoalkanoyl-1,2,3,4-tetrahydroisoquinoline derivatives as novel specific bradycardic agents” (2004):

Columns and labels:
Type in all cases: functional
Cavia porcellus = species: Cavia porcellus; experiment: Concentration required to produce 30% reduction from the initial beat rates in isolated guinea pig right atria.
Rattus norvegicus [1] = experiment: Reduction of spontaneous sinus heart rate (HR) when […] in conscious rats; Reduced from -5.28 to -20.0 beats/min
Rattus norvegicus [2] = experiment: Reduction of mean blood pressure (MBP) when […] in conscious rats; Reduced from 2.12 to 2.0 mmHg
Rattus norvegicus [3] = experiment: Reduction of spontaneous sinus heart rate (HR) when […] in conscious rats; Reduced from -23.5 to -87.8 beats/min

Compound | EC30 (Cavia porcellus) | also measured
COc1cc2c(cc1OC)CN(C(=O)CCN1CCC(COc3ccc4c(c3)OCO4)CC1)CC2 | 0.47 µM | Heart rate (Rattus norvegicus [1]): -20 beats min-1
COc1cc2c(cc1OC)CN(C(=O)CCN1CCC(CCCOc3ccc4c(c3)OCO4)CC1)CC2 | 0.62 µM | 
COc1cc2c(cc1OC)CN(C(=O)CCN1CCCC(COc3ccc4c(c3)OCO4)C1)CC2 (stereo not given) | 0.17 µM | 
COc1cc2c(cc1OC)CN(C(=O)CN1CCCC(COc3ccc4c(c3)OCO4)C1)CC2 (stereo not given) | 1.17 µM | 
COc1cc2c(cc1OC)CN(C(=O)CCN1CCC(CCOc3ccc4c(c3)OCO4)CC1)CC2 | 0.45 µM | 
COc1cc2c(cc1OC)CN(C(=O)C1CCCN(CCCOc3ccc4c(c3)OCO4)C1)CC2 (stereo not given) | 0.37 µM | 
COc1cc2c(cc1OC)CN(C(=O)CCN1CCCC(CCOc3ccc4c(c3)OCO4)C1)CC2 (stereo not given) | 0.34 µM | 
COc1cc2c(cc1OC)CN(C(=O)CCN1CCC(Oc3ccc4c(c3)OCO4)CC1)CC2 | 0.44 µM | MBP (Rattus norvegicus [2]): 2 mmHg; Heart rate (Rattus norvegicus [3]): -87.8 beats min-1
COc1cc2c(cc1OC)CN(C(=O)CCN1CCCC(Oc3ccc4c(c3)OCO4)C1)CC2 (stereo not given) | 3.03 µM | 
COc1cc2c(cc1OC)CN(C(=O)CCN1CCCC(CCCOc3ccc4c(c3)OCO4)C1)CC2 (stereo not given) | 0.39 µM | 
COc1cc2c(cc1OC)CN(C(=O)CCCN1CCCC(COc3ccc4c(c3)OCO4)C1)CC2 (stereo not given) | 0.85 µM | 
COc1ccc(CCN(C)CCCN2CCc3cc(OC)c(OC)cc3CC2=O)cc1OC [ZATEBRADINE] | 0.26 µM | 
